pIC50: −log10 of the molar value. Positions of bridges follow the written chain, without caps; N, C: chain ends. Non-standard residues stand in square brackets, D forms with d. Residues, ends and D or L forms follow the SMILES beside them. Trp(1-Me) = Cn1cc(C[C@H](N)C(=O)O)c2ccccc21; 2Nal = N[C@@H](Cc1ccc2ccccc2c1)C(=O)O; NMeI = CC[C@H](C)[C@H](NC)C(=O)O; Sar = CNCC(=O)O
System: classical complement pathway
Assay: In vitro haemolysis assay (inhibition of classical complement pathway)
Assay type: cell-based, human
Settings: human serum, sensitized sheep red blood cells; Table 3, given as upper bounds; read-out: IC50, inhibition of hemolysis
Method in brief: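 Compound dilutions preincubated 15 min at room temperature with diluted human serum (titrated per batch for 70-90% maximal haemolysis), then antibody-sensitized sheep RBC (10^7/well) added for 30 min at 37 °C in Tris/casein buffer, pH 7.4. Stopped with EDTA; haemolysis read at 405 nm; IC50 by 4PL fit.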

Row | Structure (SMILES) | pIC50
1 | CC[C@H](C)[C@@H]1NC(=O)[C@@H](NC(=O)[C@@H](NC(=O)[C@H](CCCCN)NC(=O)[C@H](CCC(=O)O)NC(=O)[C@H](CCCCN)NC(C)=O)[C@@H](C)CC)CSSC[C@@H](C(=O)N[C@H](C(=O)N[C@@H](CCC(=O)O)C(=O)N[C@@H](CCCCN)C(=O)N[C@@H](CCC(=O)O)C(N)=O)[C@@H](C)O)NC(=O)[C@H](CCCNC(=N)N)NC(=O)[C@H](Cc2c[nH]cn2)NC(=O)[C@H](CCC(=O)O)NC(=O)CNC(=O)[C@H](Cc2c[nH]c3ccccc23)NC(=O)[C@H](CC(=O)O)NC(=O)[C@H](CCC(N)=O)NC(=O)[C@H](Cc2c[nH]c3ccccc23)NC1=O [Compound 37] (Ac-KEKICIWQDWGEHRCTEKE-NH2; disulfide 5-15) | > 6.60
2 | CC[C@H](C)[C@H](NC(=O)CNC(=O)[C@H](CCCCN)NC(=O)[C@H](CCC(=O)O)NC(C)=O)C(=O)N[C@H]1CSSC[C@@H](C(=O)N[C@H](C(=O)N[C@@H](CCC(=O)O)C(=O)N[C@@H](CCCCN)C(=O)N2CCC[C@H]2C(N)=O)[C@@H](C)O)NC(=O)[C@H](CCCNC(=N)N)NC(=O)[C@H](Cc2c[nH]cn2)NC(=O)[C@H](CCC(=O)O)NC(=O)CNC(=O)[C@H](Cc2c[nH]c3ccccc23)NC(=O)[C@H](CC(=O)O)NC(=O)[C@H](CCC(N)=O)NC(=O)[C@H](Cc2c[nH]c3ccccc23)NC(=O)[C@H]([C@@H](C)CC)NC1=O [Compound 38] (Ac-EKGICIWQDWGEHRCTEKP-NH2; disulfide 5-15) | > 6.60
3 | CC[C@H](C)[C@H](NC(C)=O)C(=O)N[C@H]1CSSC[C@@H](C(=O)N[C@H](C(=O)N[C@@H](CCC(=O)O)C(=O)NCC(=O)N[C@@H](CCCCN)C(N)=O)[C@@H](C)O)NC(=O)[C@H](CCCNC(=N)N)NC(=O)[C@H](Cc2c[nH]cn2)NC(=O)[C@H](CCC(=O)O)NC(=O)CNC(=O)[C@H](Cc2c[nH]c3ccccc23)NC(=O)[C@H](CC(=O)O)NC(=O)[C@H](CCC(N)=O)NC(=O)[C@H](Cc2c[nH]c3ccccc23)NC(=O)[C@H]([C@@H](C)CC)NC1=O [Compound 39] (Ac-ICIWQDWGEHRCTEGK-NH2; disulfide 2-12) | > 7.00
4 | CC[C@H](C)[C@H](NC(=O)[C@H](C)NC(=O)[C@H](CO)NC(C)=O)C(=O)N[C@H]1CSSC[C@@H](C(=O)N[C@H](C(=O)N[C@@H](CCC(=O)O)C(=O)NCC(N)=O)[C@@H](C)O)NC(=O)[C@H](CCCNC(=N)N)NC(=O)[C@H](Cc2c[nH]cn2)NC(=O)[C@H](CCC(=O)O)NC(=O)CNC(=O)[C@H](Cc2c[nH]c3ccccc23)NC(=O)[C@H](CC(=O)O)NC(=O)[C@H](CCC(N)=O)NC(=O)[C@H](Cc2c[nH]c3ccccc23)NC(=O)[C@H]([C@@H](C)CC)NC1=O [Compound 42] (Ac-SAICIWQDWGEHRCTEG-NH2; disulfide 4-14) | > 6.60
5 | CC[C@H](C)[C@@H]1NC(=O)[C@@H](NC(=O)[C@H](Cc2ccccc2)NC(C)=O)CSSC[C@@H](C(=O)N[C@H](C(=O)NCC(=O)N[C@@H](C)C(=O)N[C@@H](CCC(=O)O)C(N)=O)[C@@H](C)O)NC(=O)[C@H](CCCNC(=N)N)NC(=O)[C@H](Cc2c[nH]cn2)NC(=O)[C@H](CCC(=O)O)NC(=O)CNC(=O)[C@H](Cc2c[nH]c3ccccc23)NC(=O)[C@H](CC(=O)O)NC(=O)[C@H](CCC(N)=O)NC(=O)[C@H](Cc2c[nH]c3ccccc23)NC1=O [Compound 43] (Ac-FCIWQDWGEHRCTGAE-NH2; disulfide 2-12) | > 7.00
6 | CC[C@H](C)[C@H](NC(=O)[C@H](C)NC(=O)[C@H](CO)NC(=O)[C@H](CO)NC(=O)[C@H](CCC(=O)O)NC(C)=O)C(=O)N[C@H]1CSSC[C@@H](C(=O)N[C@H](C(N)=O)[C@@H](C)O)NC(=O)[C@H](CCCNC(=N)N)NC(=O)[C@H](Cc2c[nH]cn2)NC(=O)[C@H](C)NC(=O)CNC(=O)[C@H](Cc2c[nH]c3ccccc23)NC(=O)[C@H](CC(=O)O)NC(=O)[C@H](CCC(N)=O)NC(=O)[C@H](Cc2c[nH]c3ccccc23)NC(=O)[C@H]([C@@H](C)CC)NC1=O [Compound 46] (Ac-ESSAICIWQDWGAHRCT-NH2; disulfide 6-16) | > 7.00
7 | CC[C@H](C)[C@H](NC(C)=O)C(=O)N[C@H]1CSSC[C@@H](C(=O)N[C@H](C(=O)NCC(=O)N[C@@H](C)C(=O)N[C@@H](CCC(=O)O)C(=O)N[C@@H](CO)C(N)=O)[C@@H](C)O)NC(=O)[C@H](CCCNC(=N)N)NC(=O)[C@H](Cc2c[nH]cn2)NC(=O)[C@H](C)NC(=O)CNC(=O)[C@H](Cc2c[nH]c3ccccc23)NC(=O)[C@H](CC(=O)O)NC(=O)[C@H](CCC(N)=O)NC(=O)[C@H](Cc2c[nH]c3ccccc23)NC(=O)[C@H]([C@@H](C)CC)NC1=O [Compound 47] (Ac-ICIWQDWGAHRCTGAES-NH2; disulfide 2-12) | > 7.00
8 | CC[C@H](C)[C@H](NC(=O)[C@H](N)Cc1ccc(O)cc1)C(=O)N[C@H]1CSSC[C@@H](C(=O)N(C)[C@H](C(N)=O)[C@@H](C)CC)NC(=O)[C@H](CCCNC(=N)N)NC(=O)[C@H](Cc2c[nH]cn2)NC(=O)[C@H](C)NC(=O)CN(C)C(=O)[C@H](Cc2c[nH]c3ccccc23)NC(=O)[C@H](CC(=O)O)NC(=O)[C@H](CCC(N)=O)NC(=O)[C@H](Cc2cn(C)c3ccccc23)NC(=O)[C@H]([C@@H](C)CC)NC1=O [Compound 48, H-{d}YIC(1)I[1-Me-Trp]QDW[Sar]AHRC(1)[N-Me-Ile]-NH2] (H-[dY]ICI[Trp(1-Me)]QDW[Sar]AHRC[NMeI]-NH2; disulfide 3-13) | > 7.00
9 | CC[C@H](C)[C@@H]1NC(=O)[C@@H](NC(=O)[C@H](Cc2ccccc2)NC(=O)[C@H](C)NC(=O)[C@H](CO)NC(=O)CNC(=O)[C@H](CCC(=O)O)NC(C)=O)CSSC[C@@H](C(=O)N[C@@H](CCC(=O)O)C(=O)NCC(=O)N[C@@H](CCC(=O)O)C(N)=O)NC(=O)[C@H](CCCNC(=N)N)NC(=O)[C@H](Cc2c[nH]cn2)NC(=O)[C@H](CCC(=O)O)NC(=O)CNC(=O)[C@H](Cc2c[nH]c3ccccc23)NC(=O)[C@H](CC(=O)O)NC(=O)[C@H](CCC(N)=O)NC(=O)[C@H](Cc2cn(C)c3ccccc23)NC1=O [Compound 58] (Ac-EGSAFCI[Trp(1-Me)]QDWGEHRCEGE-NH2; disulfide 6-16) | > 7.00
10 | CC[C@H](C)[C@@H]1NC(=O)[C@@H](NC(=O)[C@H](Cc2ccc(O)cc2)NC(=O)[C@H](C)NC(=O)[C@H](CO)NC(=O)CNC(=O)[C@H](CCC(=O)O)NC(C)=O)CSSC[C@@H](C(=O)N[C@H](C(=O)N[C@@H](CCC(=O)O)C(N)=O)[C@@H](C)O)NC(=O)[C@H](CCCNC(=N)N)NC(=O)[C@H](Cc2c[nH]cn2)NC(=O)[C@H](CCC(=O)O)NC(=O)CNC(=O)[C@H](Cc2c[nH]c3ccccc23)NC(=O)[C@H](CC(=O)O)NC(=O)[C@H](CCC(N)=O)NC(=O)[C@H](Cc2cn(C)c3ccccc23)NC1=O [Compound 59] (Ac-EGSAYCI[Trp(1-Me)]QDWGEHRCTE-NH2; disulfide 6-16) | > 7.00
11 | CC[C@H](C)[C@@H]1NC(=O)[C@@H](NC(=O)[C@H](Cc2ccccc2)NC(C)=O)CSSC[C@@H](C(=O)N[C@H](C(=O)NCC(=O)N[C@@H](C)C(=O)N[C@@H](CCC(=O)O)C(=O)N[C@@H](CO)C(N)=O)[C@@H](C)O)NC(=O)[C@H](CCCNC(=N)N)NC(=O)[C@H](Cc2c[nH]cn2)NC(=O)[C@H](CCC(=O)O)NC(=O)CNC(=O)[C@H](Cc2c[nH]c3ccccc23)NC(=O)[C@H](CC(=O)O)NC(=O)[C@H](CCC(N)=O)NC(=O)[C@H](Cc2ccc3ccccc3c2)NC1=O [Compound 64] (Ac-FCI[2Nal]QDWGEHRCTGAES-NH2; disulfide 2-12) | > 7.00
12 | CC[C@H](C)[C@@H]1NC(=O)[C@@H](NC(=O)[C@H](Cc2ccc(O)cc2)NC(C)=O)CSSC[C@@H](C(=O)N[C@H](C(=O)N[C@@H](CCC(=O)O)C(=O)N[C@@H](CO)C(=O)NCC(=O)N[C@@H](C)C(N)=O)[C@@H](C)O)NC(=O)[C@H](CCCNC(=N)N)NC(=O)[C@H](Cc2c[nH]cn2)NC(=O)[C@H](CCC(=O)O)NC(=O)CNC(=O)[C@H](Cc2c[nH]c3ccccc23)NC(=O)[C@H](CC(=O)O)NC(=O)[C@H](CCC(N)=O)NC(=O)[C@H](Cc2cn(C)c3ccccc23)NC1=O [Compound 69] (Ac-YCI[Trp(1-Me)]QDWGEHRCTESGA-NH2; disulfide 2-12) | > 7.00
13 | CC[C@H](C)[C@@H]1NC(=O)[C@@H](NC(=O)[C@H](Cc2ccc(O)cc2)NC(=O)[C@H](C)NC(=O)[C@H](CO)NC(=O)CNC(=O)[C@H](CCC(=O)O)NC(C)=O)CSSC[C@@H](C(=O)N(C)CC(=O)N[C@@H](CCC(=O)O)C(N)=O)NC(=O)[C@H](CCCNC(=N)N)NC(=O)[C@H](Cc2c[nH]cn2)NC(=O)[C@H](CCC(=O)O)NC(=O)CNC(=O)[C@H](Cc2c[nH]c3ccccc23)NC(=O)[C@H](CCC(=O)O)NC(=O)[C@H](CCC(N)=O)NC(=O)[C@H](Cc2cn(C)c3ccccc23)NC1=O [Compound 70] (Ac-EGSAYCI[Trp(1-Me)]QEWGEHRC[Sar]E-NH2; disulfide 6-16) | > 7.00
14 | CC[C@H](C)[C@@H]1NC(=O)[C@@H](NC(=O)[C@H](Cc2ccc(O)cc2)NC(=O)[C@H](CCC(=O)O)NC(=O)[C@H](CO)NC(C)=O)CSSC[C@@H](C(=O)N(C)CC(=O)N[C@@H](CCC(=O)O)C(=O)N[C@@H](C)C(N)=O)NC(=O)[C@H](CCCNC(=N)N)NC(=O)[C@H](Cc2c[nH]cn2)NC(=O)[C@H](CCC(=O)O)NC(=O)CNC(=O)[C@H](Cc2c[nH]c3ccccc23)NC(=O)[C@H](CC(=O)O)NC(=O)[C@H](CCC(N)=O)NC(=O)[C@H](Cc2cn(C)c3ccccc23)NC1=O [Compound 71] (Ac-SEYCI[Trp(1-Me)]QDWGEHRC[Sar]EA-NH2; disulfide 4-14) | > 7.00
15 | CC[C@H](C)[C@@H]1NC(=O)[C@@H](NC(=O)[C@H](Cc2ccccc2)NC(=O)[C@H](CCC(=O)O)NC(=O)[C@H](CO)NC(C)=O)CSSC[C@@H](C(=O)N(C)CC(=O)N[C@@H](CCC(=O)O)C(=O)N[C@@H](C)C(N)=O)NC(=O)[C@H](CCCNC(=N)N)NC(=O)[C@H](Cc2c[nH]cn2)NC(=O)[C@H](CCC(=O)O)NC(=O)CNC(=O)[C@H](Cc2c[nH]c3ccccc23)NC(=O)[C@H](CC(=O)O)NC(=O)[C@H](CCC(N)=O)NC(=O)[C@H](Cc2cn(C)c3ccccc23)NC1=O [Compound 75] (Ac-SEFCI[Trp(1-Me)]QDWGEHRC[Sar]EA-NH2; disulfide 4-14) | > 7.00

Reference: patent publication US11965039B2, “Compstatin analogues and their medical uses” (priority 2018, dated 2024)
